Data as given in patent publication US20010000177A1, “Novel class of thiomorpholino substituted thiazoles” (priority 1999, published 2001).
≈ marks a conversion by molar mass, not a printed value.

Columns and labels:
Assay type in all cases: cell-based
[1] = system: Candida and Cryptococcus strains (organism not given); test: Broth microdilution antifungal activity, Table II third MIC/MCC column pair; conditions: for MIC = Minimum inhibitory concentration (50% Inhibition): 48 hrs, 35° C., YNB broth pH 7.0; for MCC = Minimum cytolytic concentration: subculture on SDA plate
Protocol: (§1) Organisms: Three strains of Candida (Candida parpsilosis, Candida tropicalis, Candida albicans-ATCC 36082) as well as Cryptococcus neoformans were used for the initial testing. Active compounds were then tested against fluconazole resistant Candida albicans, Candida krusei, Torulopsis glabrata, and Cryptococcus neoformans along with Sporothrix shenkii and Aspergillus flavus in the secondary round of testing. All clinical strains used in this study were blood culture isolates from the Clinical Microbiology Laboratory of Harbor-UCLA Medical Center, Torrance, Calif. The organisms were maintained on Sabourahd Dextrose Agar slants at 4° C. For experimentation, singlet suspensions of each organism were prepared by growing the yeast overnight at 27° C. on a rotating drum in yeast-nitrogen base broth (YNB) with amino acids (Difco, Detroit, Mich.), pH 7.0 with 0.05M morpholinepropanesulfonic acid (MOPS). The suspension was then centrifuged and washed twice with 0.85% NaCl. This was followed by sonication of the washed cell suspension for 4s (Branson Sonifier, model 350, Danbury, Conn.). The singlet blastospores were counted in a hemocytometer and adjusted to the desired concentration in 0.85% NaCl.
(§2) Antifungal Activity: The antifungal activity of the compounds and Fluconazole against the Candida and Cryptococcus strains were determined using a modification of a broth microdilution technique. Test compounds were diluted in DMSO to a 1.0 mg/ml ratio then diluted to 64 μg/ml in YNB broth, pH 7.0 with MOPS (Fluconazole was used as the control). This was to provide a working solution of each compound. Using a 96-well plate, wells 1 and 3 through 12 were prepared with YNB broth, […] dilutions of the compound solution were made in wells 2 through 11 (concentration ranges were 64 to 0.125 μg/ml). Well one served as a sterility control and blank for the spectrophotometric assays. Well twelve served as a growth control. The microtiter plates were inoculated with 10 ul in each of well 2 through 11 (final inoculum size was 10^4 organisms/ml). Inoculated plates were incubated for 48 hrs., at 35° C. The MIC values were determined spectrophotometrically by measuring the absorbance at 420 nm (Automatic Microplate Reader, DuPont Instruments, Wilmington, Del.) after agitation of the plates for 2 min with a vortex-mixer (Vorte-Genie 2 Mixer, Scientific Industries, Inc., Bolemia, N.Y.). […] With the turbidity assay this was defined as the lowest drug concentration at which turbidity in the well was <50% of the control (IC50) Minimal Cytolytic Concentrations (MCC) were determined by subculturing all wells from the 96-well plate onto a Sabourahd Dextrose Agar (SDA) plate and incubated for 1 to 2 days at 35° C. and the viability was checked.

[2] = system: Candida and Cryptococcus strains (organism not given); test: Broth microdilution antifungal activity, Table II fourth MIC/MCC column pair; conditions: fourth column pair of Table II; for MIC = Minimum inhibitory concentration (50% Inhibition): 48 hrs, 35° C., YNB broth pH 7.0; for MCC = Minimum cytolytic concentration: subculture on SDA plate
Protocol: as §1, with “Active compounds were then tested against fluconazole resistant Candida albicans, Candida krusei, Torulopsis glabrata, and Cryptococcus neoformans along with Sporothrix shenkii and Aspergillus flavus in the secondary round of testing.” left out
as §2

[3] = system: Candida and Cryptococcus strains (organism not given); test: Broth microdilution antifungal activity, Table II second MIC/MCC column pair; conditions: second column pair of Table II; for MIC = Minimum inhibitory concentration (50% Inhibition): 48 hrs, 35° C., YNB broth pH 7.0; for MCC = Minimum cytolytic concentration: subculture on SDA plate
Protocol: as §1, §2

[4] = system: Candida and Cryptococcus strains (organism not given); test: Broth microdilution antifungal activity, Table II first MIC/MCC column pair; conditions: first column pair of Table II; for MIC = Minimum inhibitory concentration (50% Inhibition): 48 hrs, 35° C., YNB broth pH 7.0; for MCC = Minimum cytolytic concentration: subculture on SDA plate
Protocol: as §1, with “Active compounds were then tested against fluconazole resistant Candida albicans, Candida krusei, Torulopsis glabrata, and Cryptococcus neoformans along with Sporothrix shenkii and Aspergillus flavus in the secondary round of testing.” left out
as §2

| SMILES | MIC = Minimum inhibitory concentration (50% Inhibition) [1] | MIC = Minimum inhibitory concentration (50% Inhibition) [2] | MIC = Minimum inhibitory concentration (50% Inhibition) [3] | MIC = Minimum inhibitory concentration (50% Inhibition) [4] | MCC = Minimum cytolytic concentration [1] | MCC = Minimum cytolytic concentration [2] | MCC = Minimum cytolytic concentration [3] | MCC = Minimum cytolytic concentration [4] |
| --- | --- | --- | --- | --- | --- | --- | --- | --- |
| CCCN(C)Cc1ccc(-c2csc(-c3ccc([N+](=O)[O-])cc3)n2)cc1 [Example 1o, 2-(4′-nitrophenyl)-4-[4″-(N-methyl-N-propylaminomethyl)phenyl]thiazole] | 2 µg/mL (≈ 5.44 µM) | 0.125 µg/mL (≈ 0.34 µM) | 1 µg/mL (≈ 2.72 µM) | 1 µg/mL (≈ 2.72 µM) | 32 µg/mL | 2 µg/mL | 4 µg/mL | 4 µg/mL |
| CN(C)CCSCc1ccc(-c2csc(-c3ccc(Cl)cc3)n2)cc1 [Example 1rr, 2-(4′-chlorophenyl)-4-[4″-[(2-dimethylaminoethyl-thio)methyl]phenyl]thiazole] | 4 µg/mL (≈ 10.3 µM) | 4 µg/mL (≈ 10.3 µM) | 4 µg/mL (≈ 10.3 µM) | 4 µg/mL (≈ 10.3 µM) | 8 µg/mL | 8 µg/mL | 8 µg/mL | 8 µg/mL |
| CNCCN(C)Cc1ccc(-c2csc(-c3ccc(Cl)cc3)n2)cc1 [Example 1tt, 2-(4′-chlorophenyl)-4-[4″-(N-methyl-N-(2-N-methylaminoethyl)-amino-methyl)phenyl]thiazole] | 2 µg/mL (≈ 5.38 µM) | 2 µg/mL (≈ 5.38 µM) | 4 µg/mL (≈ 10.8 µM) | 4 µg/mL (≈ 10.8 µM) | 16 µg/mL | 4 µg/mL | 16 µg/mL | 16 µg/mL |
| CN(C)CCN(C)Cc1ccc(-c2csc(-c3ccc(Cl)cc3)n2)cc1 [Example 1u, 2-(4′-chlorophenyl)-4-[4″-(N-methyl-N-(2-dimethylaminoethyl)aminomethyl)-phenyl]thiazole] | 4 µg/mL (≈ 10.4 µM) | 4 µg/mL (≈ 10.4 µM) | 4 µg/mL (≈ 10.4 µM) | 8 µg/mL (≈ 20.7 µM) | 4 µg/mL | 4 µg/mL | 4 µg/mL | 8 µg/mL |
| CN(C)Cc1ccc(-c2csc(-c3ccc([N+](=O)[O-])cc3)n2)cc1 [Example 1x, 2-(4′-nitrophenyl)-4-[4″-(dimethylaminomethyl)phenyl]thiazole] | 1 µg/mL (≈ 2.95 µM) | 2 µg/mL (≈ 5.89 µM) | 1 µg/mL (≈ 2.95 µM) | 1 µg/mL (≈ 2.95 µM) | 2 µg/mL | 2 µg/mL | 2 µg/mL | 2 µg/mL |

The next lines start with results.

| MIC = Minimum inhibitory concentration (50% Inhibition) [1] | MIC = Minimum inhibitory concentration (50% Inhibition) [2] | MIC = Minimum inhibitory concentration (50% Inhibition) [3] | MIC = Minimum inhibitory concentration (50% Inhibition) [4] | SMILES | MCC = Minimum cytolytic concentration [1] | MCC = Minimum cytolytic concentration [2] | MCC = Minimum cytolytic concentration [3] | MCC = Minimum cytolytic concentration [4] |
| --- | --- | --- | --- | --- | --- | --- | --- | --- |
| 2 µg/mL (≈ 5.76 µM) | 0.5 µg/mL (≈ 1.44 µM) | 2 µg/mL (≈ 5.76 µM) | 4 µg/mL (≈ 11.5 µM) | CCCN(C)Cc1ccc(-c2csc(-c3ccc(C#N)cc3)n2)cc1 [Example 6e, 2-(4′-cyanophenyl)-4-[4″-(N-methyl-N-propylaminomethyl)phenyl]-thiazole] | 16 µg/mL | 1 µg/mL | 4 µg/mL | 4 µg/mL |
| 2 µg/mL (≈ 4.9 µM) | 4 µg/mL (≈ 9.79 µM) | 4 µg/mL (≈ 9.79 µM) | 8 µg/mL (≈ 19.6 µM) | CCCN(C)Cc1ccc(-c2csc(-c3ccc(C(F)(F)F)cc3F)n2)cc1 [Example 6f, 2-(2′-fluoro-4′-trifluoromethylphenyl)-4-[4″-(N-methyl-N-propylamino-methyl)phenyl]thiazole] | 8 µg/mL | 8 µg/mL | 8 µg/mL | 16 µg/mL |
| 8 µg/mL (≈ 17.8 µM) | 4 µg/mL (≈ 8.92 µM) | 4 µg/mL (≈ 8.92 µM) | 8 µg/mL (≈ 17.8 µM) | CCCN(C)Cc1ccc(-c2csc(-c3ccc(I)cc3)n2)cc1 [Example 6g, 2-(4′-iodophenyl)-4-[4″-(N-methyl-N-propylaminomethyl)phenyl]-thiazole] | 4 µg/mL | 4 µg/mL | 2 µg/mL | 4 µg/mL |
| 1 µg/mL (≈ 2.52 µM) | 1 µg/mL (≈ 2.52 µM) | 0.5 µg/mL (≈ 1.26 µM) | 1 µg/mL (≈ 2.52 µM) | CCCN(C)Cc1ccc(-c2csc(-c3ccc(OC)c([N+](=O)[O-])c3)n2)cc1 [Example 6k, 2-(4′-methoxy-3′-nitrophenyl)-4-[4″-(N-methyl-N-propylamino-methyl)phenyl]thiazole] | 2 µg/mL | 1 µg/mL | 2 µg/mL | 2 µg/mL |
| 0.25 µg/mL (≈ 0.677 µM) | 0.25 µg/mL (≈ 0.677 µM) | 0.25 µg/mL (≈ 0.677 µM) | 0.5 µg/mL (≈ 1.35 µM) | COc1ccc(-c2nc(-c3ccc(CN(C)C)cc3)cs2)cc1[N+](=O)[O-] [Example 6l, 2-(4′-methoxy-3′-nitrophenyl)-4-[4″-(dimethylaminomethyl)phenyl]thiazole] | 1 µg/mL | 0.5 µg/mL | 0.5 µg/mL | 1 µg/mL |
| 2 µg/mL (≈ 6.26 µM) | 8 µg/mL (≈ 25 µM) | 2 µg/mL (≈ 6.26 µM) | 2 µg/mL (≈ 6.26 µM) | CN(C)Cc1ccc(-c2csc(-c3cccc(C#N)c3)n2)cc1 [Example 6o, 2-(3′-cyanophenyl)-4-[4″-(dimethylaminomethyl)phenyl]thiazole] | >64 µg/mL | 16 µg/mL | 8 µg/mL | 4 µg/mL |
| 2 µg/mL (≈ 5.24 µM) | 1 µg/mL (≈ 2.62 µM) | 1 µg/mL (≈ 2.62 µM) | 1 µg/mL (≈ 2.62 µM) | CCCN(C)Cc1ccc(-c2csc(-c3ccc(C)c([N+](=O)[O-])c3)n2)cc1 [Example 6p, 2-(4′-methyl-3′-nitrophenyl)-4-[4″-(N-methyl-N-propylaminomethyl)-phenyl]thiazole] | 16 µg/mL | 4 µg/mL | 4 µg/mL | 8 µg/mL |
